Results reported in patent US11427543B2, “Compounds for targeting cancer stem cells” (The General Hospital Corporation, priority 2016, dated 2022).
“Also recorded” adds a separate entry of the source.

Legend:
G3BP2 = target: T1, G3BP2 (Homo sapiens, UniProt Q9UN86); assay: Pull-down with compound-conjugated TURBOBEADS nanoparticles, Western blot with G3BP2 antibodies; format: binding; conditions: nanoparticles bound to compound vs nanoparticles alone (control)
T1 construct: protein lysates from three breast cancer cell lines incubated overnight with; endogenous in cells
T1 sequence (Q9UN86 1-482): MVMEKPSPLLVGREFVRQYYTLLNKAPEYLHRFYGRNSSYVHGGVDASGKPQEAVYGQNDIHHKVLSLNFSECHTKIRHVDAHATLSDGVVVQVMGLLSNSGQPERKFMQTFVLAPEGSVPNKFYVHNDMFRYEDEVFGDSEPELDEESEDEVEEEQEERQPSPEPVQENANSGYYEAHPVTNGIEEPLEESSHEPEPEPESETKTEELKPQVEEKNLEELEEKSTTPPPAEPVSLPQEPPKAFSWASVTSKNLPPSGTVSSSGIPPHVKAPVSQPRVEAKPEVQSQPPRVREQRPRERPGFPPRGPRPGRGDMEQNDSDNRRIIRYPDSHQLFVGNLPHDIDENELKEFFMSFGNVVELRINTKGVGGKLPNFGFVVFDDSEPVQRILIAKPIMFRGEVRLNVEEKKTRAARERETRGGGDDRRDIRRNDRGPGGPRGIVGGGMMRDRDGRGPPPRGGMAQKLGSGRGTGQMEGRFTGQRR
Description: Western blot analysis was performed with G3BP2 antibodies. Small molecule 2-hydroxy-N′-[1-(2-hydroxyphenyl)ethylidene]benzohydrazide was conjugated to TURBOBEADS® carboxy nanoparticles (TURBOBEADS®). TURBOBEADS® alone were used as a negative control.
To determine which […] would bind to a test compound, TURBOBEADS® carboxy nanoparticles (TURBOBEADS®) were conjugated to 2-hydroxy-N′-[1-(2-hydroxyphenyl)ethylidene]benzohydrazide for 20 mi as per manufacturer's protocol, followed by overnight immunoprecipitation at 4° C. Proteins from metastatic cancer cells were pulled-down with using the test compound-nanoparticle conjugates and using unconjugated nanoparticles as a control.
shRNA-expressing lentivirus was obtained for each pull-down protein and used to infect modified MDA-MB-231 cells. MTT assays were performed with shRNA stable cell lines and treated with non-lethal doses of paclitaxel. Only shRNA […] made cells sensitive to treatment with paclitaxel. To confirm that the test compound (2-hydroxy-N′-[1-(2-hydroxyphenyl)ethylidene]benzohydrazide) bound to G3B3P2, an immunoprecipitation with magnetic nanoparticles bound to 2-hydroxy-N′-[1-(2-hydroxyphenyl)ethylidene]benzohydrazide and nanoparticles alone (control) was carried out.

ZEB1 = ZEB1 protein level by Western blot after compound treatment; format: cell-based; conditions: MDA-MB-453 and BT-474 breast cancer cell lines, 3 μM, 24 hours
Description: Immunoprecipitation was performed using Protein A Sepharose beads (GE Healthcare Lifesciences). Beads were washed, conjugated to the immunoprecipitating antibody for 2 hours, and immunoprecipitated overnight at 4° C. Western blots were performed using a standard protocol; using 4-10% gradient gel and Tris-glycine transfer buffer.
A direct molecular link between epithelial-mesenchymal transition (EMT) and CSC plasticity in breast cancer has recently been shown; EMT effectors such as ZEB1 can co-induce both EMT and stem-like properties (see e.g., Chaffer et al., Cell, 2013, 154, 61-74). To understand if the G3BP2-mediated CSC state intersects with the EMT program, we the protein level of ZEB1 in G3BP2 knockdown and overexpression breast cancer cell lines was analyzed.

PD-L1 = PD-L1 protein level by Western blot in cells under compressive (solid) stress; format: cell-based; conditions: breast cancer (4T1) and glioblastoma cells (CT2A, GL261), solid stress 0.80 kPa, 1 μM, 24 hours
Description: Cells were treated with 1 μM C108 for 24 hours and untreated cells were used as a control. β-actin was used as a loading control.
To generate compressive stress, a device was used that included a piston of adjustable weights applying a constant force to cells growing on a transwell membrane with 0.8 μm-pores. This membrane permitted nutrient and oxygen diffusion but prevented cell transmigration. The connection between compressive stress and G3BP2 and PD-L1 protein levels was measured in 4T1 cells. When 80% cell confluence was reached on the membrane, the cells were compressed for 24 h using the in vitro compression device; a similar membrane containing 80% cell confluence in an uncompressed condition was used as the control. After 24-h compression, proteins were isolated from the control and compressed cells cultured in full-growth medium according to the standard protocol (see e.g., Roose et al. Microvasc Res, 2003, 66(3):204-12). […] To confirm this finding, Western blot analysis was performed with different breast cancer cells (MDA-MB-231 cells) with different of compressive stress, as shown in FIG. 15B).
It was then hypothesized that compounds that bind to G3BP2 protein can repress PD-L1 in stressed cells. Breast cancer cells and glioblastoma cells in vitro were analyzed with 2-hydroxy-N′-[1-(2-hydroxyphenyl)ethylidene]benzohydrazide (i.e., C108) for 24 hours.

IL-6 = IL-6 concentration by ELISA after compound treatment; format: cell-based; conditions: 4T1 and E0771 breast cancer cell lines, 1 μM, 24 hours
Description: After treatment, IL-6 concentration was decreased by about 5 to 7 fold.
4T1 and E0771 cells were grow in 96 well plate and were treated with compound for 24 hours (concentration of compound was 1 μM). Commercial ELISA kit (R&D systems) was used for measuring of IL-6 concentration. […] After treatment, IL-6 concentration was decreased by about 5 to 7 fold.

CC(=NNC(=O)c1ccccc1O)c1ccccc1O [C108, 2-hydroxy-N′-[1-(2-hydroxyphenyl)ethylidene]benzohydrazide] was tested, and the “Binding of G3BP2 to the compound (Western blotting after immunoprecipitation with magnetic nanoparticles)” value (G3BP2) was “binds”, the ZEB1 inhibition (ZEB1) was 5-7 fold and the PD-L1 expression level (PD-L1) was “repressed; also recorded: diminished”. The “Decrease in IL-6 concentration” value (IL-6) was 5 to 7 fold.
